Reference: patent EP2284178A2, “Inhibitors of cancer cell, T-cell and keratinocyte proliferation” (4SC AG, priority 2005, dated 2007)

Biological target: T1, human Proteasome (Homo sapiens, UniProt P28074)
T1 construct: purchased Immatics, Tübingen
Test: chymotryptic activity of the 20S proteasome (Suc-LLVT-AMC substrate, fluorescence)
Format: biochemical
Conditions: for human Proteasome IC50: result given in words
Experimental: The chymotryptic activity of the 20S proteasome (Immatics, Tübingen) was determined using a Tecan Ultra plate reader and Suc-LLVT-AMC as substrate (Bachem). In the wells of a black 96 well polypropylene plate, 2 µl of the respective inhibitor dissolved in DMSO were mixed with 50 µl substrate solution (25 mM HEPES pH 7.5 at 20°C, 0.5 mM EDTA and Suc-LLVT-AMC (in the appropriate concentration) and the reaction was initiated by adding 150 µl proteasome solution (1.3 µg/ml 20S proteasome in 25 mM HEPES pH 7.5 at 20°C, 0.5 mM EDTA, 0.033% (w/v) SDS). Substrate hydrolysis was followed by fluorescence spectroscopy (excitation wavelength: 360 nm; emission wavelength: 465 nm) for 20 min at 30°C and initial velocities were calculated and expressed as change in relative fluorescence units (RFU) per second.

Row | human Proteasome IC50 | IC50 (unit printed as µm) [µM] | SMILES
1 | nanomolar |  | CC(C)(C)OC(=O)NC(Cc1ccc(Br)cc1)C(=O)NC(Cc1ccc2ccccc2c1)C(=O)NC(C=NN1CC(=O)NC1=O)Cc1ccccc1 (stereo not drawn) [Compound 7]
2 | nanomolar |  | O=C1CN(N=CC(Cc2ccccc2)NC(=O)C(Cc2ccc3ccccc3c2)NC(=O)C(Cc2ccc(F)cc2)NC(=O)OCc2ccccc2)C(=O)N1 (stereo not drawn) [Compound 9]
3 |  | 3.5 | O=C1CN(/N=C/C(Cc2ccccc2)NC(=O)c2csc(-c3ccc4c(c3)CCO4)n2)C(=O)N1 (stereo not drawn) [Compound 10]
